Experimental data: ChEMBL document CHEMBL1201862, “PubChem BioAssay data set” (2004)
Where a name gives a salt, the structure may show the parent alone.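 Where inhibition never reached the appropriate level, the endpoint shown equals the highest concentration tested. Otherwise, values were interpolated linearly from a five-concentration, 48-hour dose response in 96-well plates. The concentration for 50% growth inhibition is given as GI50.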 Calls of active or inactive are those of the source. No stated cut-off is given here; in the data, active = GI50 up to about 1.1 µM and inactive = higher.

Tests used:
Experiment in all cases: inhibition of tumour cell growth, NCI panel, 48 h
[1] = test system: MCF7
[2] = test system: T47D
[3] = test system: K562
[4] = test system: SK-MEL-5
[5] = test system: ACHN
[6] = test system: NCI-H460
[7] = test system: HT-29
[8] = test system: RPMI-8226
[9] = test system: SF-539
[10] = test system: M14
[11] = test system: HCT-116
[12] = test system: SK-MEL-2
[13] = test system: BT-549
[14] = test system: A549
[15] = test system: UO-31
[16] = test system: OVCAR-4
[17] = test system: LOX IMVI
[18] = test system: MOLT-4
[19] = test system: SR

| Structure (SMILES) | GI50 [1] | GI50 [2] | GI50 [3] | GI50 [4] | GI50 [5] | GI50 [6] | GI50 [7] | GI50 [8] | GI50 [9] | GI50 [10] | GI50 [11] | GI50 [12] | GI50 [13] | GI50 [14] | GI50 [15] | GI50 [16] | GI50 [17] | GI50 [18] | GI50 [19] |
| --- | --- | --- | --- | --- | --- | --- | --- | --- | --- | --- | --- | --- | --- | --- | --- | --- | --- | --- | --- |
| CCc1ncc(CO)n1Cc1cccc2ccccc12 | > 100 µM (inactive) | 77.3 µM (inactive) | > 100 µM (inactive) | > 100 µM (inactive) | > 100 µM (inactive) | > 100 µM (inactive) | 96.8 µM (inactive) | 73.3 µM (inactive) | > 100 µM (inactive) | > 100 µM (inactive) | > 100 µM (inactive) | > 100 µM (inactive) | > 100 µM (inactive) | > 100 µM (inactive) | > 100 µM (inactive) | > 100 µM (inactive) |  |  |  |
| O=C(O)/C(O)=C\C(=O)c1ccc(Br)cc1 | > 100 µM (inactive) | > 100 µM (inactive) | > 100 µM (inactive) | > 100 µM (inactive) | > 100 µM (inactive) | > 100 µM (inactive) | > 100 µM (inactive) | > 100 µM (inactive) |  | > 100 µM (inactive) | > 100 µM (inactive) | > 100 µM (inactive) | > 100 µM (inactive) | > 100 µM (inactive) | > 100 µM (inactive) | > 100 µM (inactive) | > 100 µM (inactive) | > 100 µM (inactive) |  |
| CCCCC(O)(c1ccccc1)C(O)(c1ccccc1)c1c(F)c(F)c(F)c(F)c1F (stereo not drawn) | 20.3 µM (inactive) | 35.4 µM (inactive) | 27.4 µM (inactive) | 18.4 µM (inactive) | 19.6 µM (inactive) | 23.7 µM (inactive) | 14.1 µM (inactive) | 18.2 µM (inactive) |  | 30.3 µM (inactive) | 18.1 µM (inactive) |  | 33.3 µM (inactive) | 28.4 µM (inactive) | 30.3 µM (inactive) | 44.4 µM (inactive) |  | 16.8 µM (inactive) | 25.3 µM (inactive) |
| N#Cc1nnn(-c2ccccc2)c1O | > 100 µM (inactive) | > 100 µM (inactive) | > 100 µM (inactive) | > 100 µM (inactive) | > 100 µM (inactive) |  | > 100 µM (inactive) | > 100 µM (inactive) | > 100 µM (inactive) | > 100 µM (inactive) | > 100 µM (inactive) | > 100 µM (inactive) | > 100 µM (inactive) | > 100 µM (inactive) | > 100 µM (inactive) | > 100 µM (inactive) | > 100 µM (inactive) | > 100 µM (inactive) |  |
| Cc1ccc(N/C(Sc2ccccc2)=C(/C(Cl)=C(Cl)Cl)[N+](=O)[O-])c(C)c1 | 14.4 µM (inactive) |  | 18 µM (inactive) | 25.1 µM (inactive) | 32.8 µM (inactive) | 16.8 µM (inactive) | 18.3 µM (inactive) | 20.3 µM (inactive) | 21.7 µM (inactive) | 21.5 µM (inactive) | 17.1 µM (inactive) | 19.5 µM (inactive) | 15.5 µM (inactive) | 33.8 µM (inactive) |  | 23.7 µM (inactive) | 14.5 µM (inactive) | 19.6 µM (inactive) | 23.3 µM (inactive) |
| O=c1c2c3ccccc3[nH]c2c2cccc3c2n1CCC3 | 35.1 µM (inactive) | 61 µM (inactive) | 32.3 µM (inactive) | 17.6 µM (inactive) | 41.1 µM (inactive) | 34.8 µM (inactive) | 29.6 µM (inactive) |  | 40.1 µM (inactive) | 60.5 µM (inactive) | 36.6 µM (inactive) |  | 29.6 µM (inactive) | 48.1 µM (inactive) | > 10 µM (inactive) |  |  | 25.5 µM (inactive) | 25.9 µM (inactive) |
| Cn1c(=O)n2n(c1=O)[C@@H](c1ccccc1)[C@H]2c1ccccc1 | > 100 µM (inactive) |  | 64.3 µM (inactive) | > 100 µM (inactive) | > 100 µM (inactive) | > 100 µM (inactive) | > 100 µM (inactive) |  | > 100 µM (inactive) | > 100 µM (inactive) | > 100 µM (inactive) | > 100 µM (inactive) | > 100 µM (inactive) | > 100 µM (inactive) | > 100 µM (inactive) | > 100 µM (inactive) | > 100 µM (inactive) | > 100 µM (inactive) | > 100 µM (inactive) |
| O=C(/C=C\Nc1ccccc1O)C(Cl)(Cl)Cl | 20.8 µM (inactive) | 28 µM (inactive) | 36.7 µM (inactive) | > 100 µM (inactive) | 26.9 µM (inactive) | 53.7 µM (inactive) | 36.1 µM (inactive) | 25.3 µM (inactive) | 56.2 µM (inactive) | 38.9 µM (inactive) | 37.8 µM (inactive) | 43.2 µM (inactive) | 52.2 µM (inactive) | 48.2 µM (inactive) | 25.1 µM (inactive) | 39.1 µM (inactive) | 31.8 µM (inactive) | 27.7 µM (inactive) |  |
| CCOP(=O)(OCC)/C(C#N)=C/c1cnc[nH]1 | > 100 µM (inactive) |  | > 100 µM (inactive) | > 100 µM (inactive) | > 100 µM (inactive) | > 100 µM (inactive) | > 100 µM (inactive) | > 100 µM (inactive) | > 100 µM (inactive) | > 100 µM (inactive) | > 100 µM (inactive) | > 100 µM (inactive) | > 100 µM (inactive) | > 100 µM (inactive) | > 100 µM (inactive) | > 100 µM (inactive) | > 100 µM (inactive) | > 100 µM (inactive) | > 100 µM (inactive) |
| COC(=O)c1cc(C)ccc1C1CN=NC12Cc1ccc(C)cc1C2=O (stereo not drawn) | 29.9 µM (inactive) | 31.8 µM (inactive) | 19.4 µM (inactive) | 15.5 µM (inactive) | 38.6 µM (inactive) | 34.1 µM (inactive) | 41.5 µM (inactive) |  | 60.4 µM (inactive) | 38.3 µM (inactive) | 27.1 µM (inactive) | 57.9 µM (inactive) | 30.1 µM (inactive) | 29.8 µM (inactive) | 27.7 µM (inactive) | 20 µM (inactive) | 31.2 µM (inactive) | 23.1 µM (inactive) |  |
| O=C1c2ccccc2-n2c1nc1ccc([N+](=O)[O-])cc1c2=O | 11.7 µM (inactive) | 25.9 µM (inactive) | 30.1 µM (inactive) | 95.9 µM (inactive) | 58.9 µM (inactive) | > 100 µM (inactive) | > 10 µM (inactive) | 25.2 µM (inactive) | > 100 µM (inactive) | 91.8 µM (inactive) | 27.1 µM (inactive) |  | > 100 µM (inactive) | > 100 µM (inactive) | 42.9 µM (inactive) | > 10 µM (inactive) | 22.5 µM (inactive) | 26.3 µM (inactive) | 28.8 µM (inactive) |
| CC[C@]12CN3CCc4c([nH]c5ccccc45)[C@@](C(=O)OC)(c4cc5c(cc4OC)N(C)[C@H]4[C@@](O)(C(=O)OC)[C@H](OC(C)=O)[C@]6(CC)C=CCN7CC[C@]54[C@@H]76)CC(C3)[C@H]1O2 (stereo partly drawn) [VINLEUROSINE SULFATE] | < 0.014 µM (active) |  | < 0.01 µM (active) | < 0.01 µM (active) | 1.33 µM (inactive) | < 0.01 µM (active) | < 0.0172 µM (active) | 0.0581 µM (active) | 0.039 µM (active) | 0.171 µM (active) | < 0.01 µM (active) | 0.0968 µM (active) | 10.2 µM (inactive) | 0.394 µM (active) | 5.57 µM (inactive) | < 0.01 µM (active) | < 0.01 µM (active) | < 0.0156 µM (active) |  |
